Assay [1] deals with wheat leaf rust, Puccinia recondita. Nature of the assay: whole plant or invertebrate. Format: in vivo. To be noted: foliar; for pest or weed control at 280.212 g/ha: read-out: % Control (with 1" of rain), foliar, 0.25 lb., 1" of rain; for pest or weed control at 1120.85 g/ha: read-out: % Control (with 1" of rain), foliar, 1 lb., 1" of rain.
For assay [2] the test system is unchanged. The experiment in a line: whole plant or invertebrate. Format: in vivo. To be noted: foliar; for pest or weed control at 280.212 g/ha: read-out: % Control (without rain), foliar, 0.25 lb.; for pest or weed control at 1120.85 g/ha: read-out: % Control (without rain), foliar, 1 lb.

Where two headings read alike, the source gives them in different places.

Regarding `Clc1ccc(-n2cnnc2)c(Cl)c1` [Example 56, 4-(2,4-dichlorophenyl)-1,2,4-triazole], in assay [1], the pest or weed control at 280.212 g/ha was found to be 0% and the pest or weed control at 1120.85 g/ha worked out at 5%. In assay [2], the pest or weed control at 280.212 g/ha was determined as 90% and the pest or weed control at 1120.85 g/ha stood at 65%.

In the case of `O=[N+]([O-])c1cccc(-n2cnnc2)c1` [Example 58, 4-(3-nitrophenyl)-1,2,4-triazole], the pest or weed control at 280.212 g/ha in assay [1] amounted to 0%; in assay [2] it was 80%. The pest or weed control at 1120.85 g/ha in assay [1] was found to be 0%; in assay [2] it was 80%.

For `O=[N+]([O-])c1ccc(-n2cnnc2)cc1` [Example 59, 4-(4-nitrophenyl)-1,2,4-triazole], in assay [1], the pest or weed control at 280.212 g/ha was found to be 58% and the pest or weed control at 1120.85 g/ha came to 79%. In addition, in assay [2], the pest or weed control at 280.212 g/ha is 97% and the pest or weed control at 1120.85 g/ha came out at 98%.

Regarding `COc1ccc(-n2cnnc2)cc1` [Example 60, 4-(4-methoxyphenyl)-1,2,4-triazole], in assay [1], the pest or weed control at 280.212 g/ha came to 95% and the pest or weed control at 1120.85 g/ha came out at 97%. Moreover, in assay [2], the pest or weed control at 280.212 g/ha is 100% and the pest or weed control at 1120.85 g/ha was found to be 100%.

On to `c1cc(-n2cnnc2)ccn1` [Example 61, 4-(4-pyridyl)-1,2,4-triazole], for which the results for the pest or weed control at 280.212 g/ha in assay [1] and in assay [2] were 0% and 10%, respectively. Besides, the pest or weed control at 1120.85 g/ha in assay [1] is 0%; in assay [2] it was 10%.

Turning to `c1ccc(-n2cnnc2)nc1` [Example 62, 4-(2-pyridyl)-1,2,4-triazole], the pest or weed control at 1120.85 g/ha in assay [1] worked out at 99%. Moreover, in assay [2], the pest or weed control at 280.212 g/ha came to 100% and the pest or weed control at 1120.85 g/ha was determined as 100%.

`c1nc(-n2cnnc2)n[nH]1` [Example 66, 4-(3-(1,2,4-triazy)-1,2,4-triazole]: in assay [1], the pest or weed control at 280.212 g/ha is 99%. Also, in assay [2], the pest or weed control at 280.212 g/ha is 100% and the pest or weed control at 1120.85 g/ha turned out to be 100%.

Consider `c1cnc(-n2cnnc2)nc1` [Example 67, 4-(2-pyrimidyl)-1,2,4-triazole], for which the pest or weed control at 1120.85 g/ha in assay [1] amounted to 97%. Further, in assay [2], the pest or weed control at 280.212 g/ha amounted to 94% and the pest or weed control at 1120.85 g/ha stood at 87%.

With `c1csc(-n2cnnc2)n1` [Example 68, 4-(2-thiazyl)-1,2,4-triazole], in assay [1], the pest or weed control at 280.212 g/ha was 67% and the pest or weed control at 1120.85 g/ha amounted to 96%. Moreover, in assay [2], the pest or weed control at 280.212 g/ha came out at 66% and the pest or weed control at 1120.85 g/ha stood at 73%.

For `c1ccc2sc(-n3cnnc3)nc2c1` [Example 69, 4-(2-benzothiazyl)-1,2,4-triazole], the figures for the pest or weed control at 280.212 g/ha in assay [1] and in assay [2] were 98% and 100%, respectively. Further, the pest or weed control at 1120.85 g/ha in assay [1] is 98%; in assay [2], 100%.

In the case of `Clc1cccc2sc(-n3cnnc3)nc12` [Example 70], the pest or weed control at 280.212 g/ha in assay [1] and in assay [2] was 100% in each case. Moreover, in assay [2], the pest or weed control at 1120.85 g/ha is 100%.

For `c1ccc2[nH]c(-n3cnnc3)nc2c1` [Example 71, 4-(2-benzimidazolyl)-1,2,4-triazole], in assay [1], the pest or weed control at 280.212 g/ha amounted to 0% and the pest or weed control at 1120.85 g/ha turned out to be 0%. Further, in assay [2], the pest or weed control at 280.212 g/ha is 10% and the pest or weed control at 1120.85 g/ha was 20%.

Take `Cn1cnnc1S` [Example 73, 3-mercapto-4-methyl-1,2,4-triazole]: in assay [1], the pest or weed control at 280.212 g/ha stood at 0% and the pest or weed control at 1120.85 g/ha was 10%. Moreover, in assay [2], the pest or weed control at 280.212 g/ha turned out to be 34% and the pest or weed control at 1120.85 g/ha stood at 50%.

Consider `CCn1cnnc1S` [Example 74, 3-mercapto-4-ethyl-1,2,4-triazole], for which, in assay [1], the pest or weed control at 280.212 g/ha came out at 0% and the pest or weed control at 1120.85 g/ha was found to be 0%. Further, in assay [2], the pest or weed control at 280.212 g/ha turned out to be 40% and the pest or weed control at 1120.85 g/ha amounted to 60%.

As to `CC(C)(C)n1cnnc1S` [Example 77, 3-mercapto-4-t-butyl-1,2,4-triazole], in assay [1], the pest or weed control at 280.212 g/ha came out at 57% and the pest or weed control at 1120.85 g/ha is 80%. In assay [2], the pest or weed control at 280.212 g/ha was 68% and the pest or weed control at 1120.85 g/ha worked out at 100%.

`CCCCCCCCn1cnnc1S` [Example 80, 3-mercapto-4-n-octyl-1,2,4-trizole]: in assay [1], the pest or weed control at 280.212 g/ha amounted to 51% and the pest or weed control at 1120.85 g/ha is 65%. For the same compound, in assay [2], the pest or weed control at 280.212 g/ha was found to be 100% and the pest or weed control at 1120.85 g/ha is 100%.

Take `CC(C)(C)CC(C)(C)n1cnnc1S` [Example 81, 3-mercapto-4-t-octyl-1,2,4-triazole]: in assay [1], the pest or weed control at 280.212 g/ha stood at 53% and the pest or weed control at 1120.85 g/ha was determined as 86%. In assay [2], the pest or weed control at 280.212 g/ha worked out at 100% and the pest or weed control at 1120.85 g/ha was 100%.

On to `CCCCCCCCCCn1cnnc1S` [Example 82, 3-mercapto-4-n-decyl-1,2,4-triazole], for which the pest or weed control at 280.212 g/ha in assay [1] amounted to 46%; in assay [2], 61%. The results for the pest or weed control at 1120.85 g/ha in assay [1] and in assay [2] were 72% and 78%, respectively.

As for `Sc1nncn1C1CCCCC1` [Example 83, 3-mercapto-4-cyclohexyl-1,2,4-triazole], in assay [1], the pest or weed control at 280.212 g/ha was 100% and the pest or weed control at 1120.85 g/ha was found to be 98%. In assay [2], the pest or weed control at 280.212 g/ha turned out to be 44% and the pest or weed control at 1120.85 g/ha came to 34%.

As to `Sc1nncn1-c1ccccc1` [Example 85, 3-mercapto-4-phenyl-1,2,4-triazole], in assay [1], the pest or weed control at 280.212 g/ha was found to be 72% and the pest or weed control at 1120.85 g/ha amounted to 90%. Moreover, in assay [2], the pest or weed control at 280.212 g/ha was 80% and the pest or weed control at 1120.85 g/ha stood at 85%.

As for `Cn1c(O)nnc1S` [Example 86, 3-mercapto-4-methyl-5-hydroxy-1,2,4-triazole], the pest or weed control at 280.212 g/ha was 63% in assay [1] and 96% in assay [2]. In addition, the pest or weed control at 1120.85 g/ha came out at 63% in assay [1] and 99% in assay [2].

As to `CCCCn1c(O)nnc1S` [Example 87, 3-mercapto-4-n-butyl-5-hydroxy-1,2,4-triazole], in assay [1], the pest or weed control at 280.212 g/ha came out at 0% and the pest or weed control at 1120.85 g/ha stood at 0%. Moreover, in assay [2], the pest or weed control at 280.212 g/ha came to 15% and the pest or weed control at 1120.85 g/ha was found to be 49%.

Take `Oc1nnc(S)n1-c1ccccc1` [Example 88, 3-mercapto-4-phenyl-5-hydroxy-1,2,4-triazole]: in assay [1], the pest or weed control at 280.212 g/ha turned out to be 98% and the pest or weed control at 1120.85 g/ha was determined as 100%. Moreover, in assay [2], the pest or weed control at 280.212 g/ha came to 73% and the pest or weed control at 1120.85 g/ha was determined as 80%.

For `CCCCn1c(C)nnc1S` [Example 89, 3-mercapto-4-n-butyl-5-methyl-1,2,4-triazole], in assay [1], the pest or weed control at 280.212 g/ha is 57% and the pest or weed control at 1120.85 g/ha was 80%. In assay [2], the pest or weed control at 280.212 g/ha is 26% and the pest or weed control at 1120.85 g/ha worked out at 51%.

Regarding `Cn1c(S)nnc1-c1ccco1` [Example 90, 3-mercapto-4-methyl-5-(2-furyl)-1,2,4-triazole], in assay [1], the pest or weed control at 280.212 g/ha turned out to be 80% and the pest or weed control at 1120.85 g/ha turned out to be 87%. In addition, in assay [2], the pest or weed control at 280.212 g/ha stood at 0% and the pest or weed control at 1120.85 g/ha was 28%.

Turning to `CCCCn1c(S)nnc1-c1ccco1` [Example 91, 3-mercapto-4-n-butyl-5-(2-furyl)-1,2,4-triazole], the pest or weed control at 280.212 g/ha turned out to be 100% in assay [1] and 41% in assay [2]. Moreover, the pest or weed control at 1120.85 g/ha worked out at 100% in assay [1] and 72% in assay [2].

Consider `Sc1nnc(-c2ccco2)n1-c1ccccc1` [Example 92, 3-mercapto-4-phenyl-5-(2-furyl)-1,2,4-triazole], for which, in assay [1], the pest or weed control at 280.212 g/ha amounted to 100% and the pest or weed control at 1120.85 g/ha is 87%. For the same compound, in assay [2], the pest or weed control at 280.212 g/ha is 100% and the pest or weed control at 1120.85 g/ha was 81%.

Consider `Cn1c(S)nnc1C(=O)O` [Example 93, 3-mercapto-4-methyl-5-carboxy-1,2,4-triazole], for which, in assay [1], the pest or weed control at 280.212 g/ha was 0% and the pest or weed control at 1120.85 g/ha amounted to 0%. Also, in assay [2], the pest or weed control at 280.212 g/ha was 65% and the pest or weed control at 1120.85 g/ha came to 94%.

Regarding `COC(=O)c1nnc(S)n1C` [Example 96, 3-mercapto-4-methyl-5-methoxycarbonyl-1,2,4-triazole], in assay [1], the pest or weed control at 280.212 g/ha worked out at 0% and the pest or weed control at 1120.85 g/ha came out at 5%. Besides, in assay [2], the pest or weed control at 280.212 g/ha was 90% and the pest or weed control at 1120.85 g/ha was found to be 98%.

Regarding `CCCCn1cnnc1SC` [Example 102, 3-methylmercapto-4-n-butyl-1,2,4-triazole], in assay [1], the pest or weed control at 280.212 g/ha stood at 51% and the pest or weed control at 1120.85 g/ha was determined as 51%. For the same compound, in assay [2], the pest or weed control at 280.212 g/ha was determined as 100% and the pest or weed control at 1120.85 g/ha stood at 100%.

As for `CCCCSc1nncn1CCCC` [Example 103, 3-n-butylmercapto-4-n-butyl-1,2,4-triazole], in assay [1], the pest or weed control at 280.212 g/ha was determined as 50% and the pest or weed control at 1120.85 g/ha worked out at 80%. Further, in assay [2], the pest or weed control at 280.212 g/ha stood at 50% and the pest or weed control at 1120.85 g/ha was determined as 90%.

`CCCCCCCCCCSc1nncn1CCCC` [Example 104, 3-n-decylmercapto-4-butyl-1,2,4-triazole]: in assay [1], the pest or weed control at 280.212 g/ha is 45% and the pest or weed control at 1120.85 g/ha came to 98%. In addition, in assay [2], the pest or weed control at 280.212 g/ha is 80% and the pest or weed control at 1120.85 g/ha stood at 98%.

As to `C=CCSc1nncn1CCCC` [Example 105, 3-allylmercapto-4-n-butyl-1,2,4-triazole], in assay [1], the pest or weed control at 280.212 g/ha is 50% and the pest or weed control at 1120.85 g/ha was determined as 90%. Besides, in assay [2], the pest or weed control at 280.212 g/ha came to 50% and the pest or weed control at 1120.85 g/ha amounted to 95%.

The record behind these values is US4120864A, “1,2,4-4H-triazole derivatives” (Rohm and Haas Company, priority 1972, dated 1978).
